Literature values in US6736837B2, “Method for inducing hypothermia for treating neurological disorders” (priority 1997, dated 2004).
Like-named read-outs stand apart in the source and are kept apart here.

Test system: tumors
Conditions: for effect on tumor size: same dose

O=c1[nH]cc(F)c(=O)[nH]1 [5-FU, 5-fluoruracil]
effect on tumors (hamsters, 50 mg/kg, during hypothermia with the tumors maintained at normal body temperature): regression and disappearance of tumors
effect on tumor size (hypothermic animals whose tumors were also hypothermic): did not affect tumor size
effect on tumor size (tumor-bearing animals that were not made hypothermic): did not affect tumor size
